Measured values reported in US20260091147A1, “METHOD FOR DETECTING INNATE IMMUNE ACTION IN VIVO USING GPR84-PET” (The Board of Trustees of the Leland Standford Junior …, priority 2023, published 2026).

What was measured:
GPR84 [1] = molecular target: T1, GPR84 (Mus musculus, UniProt Q8CIM5); assay: Ex vivo autoradiography of brain sections from LPS-treated mice; type: in vivo
T1 construct: tissue Jackson Laboratories; host or cells: female C57BL/6J mice (LPS, saline, EAE or naive): brain, spinal cord and peripheral organs
Protocol: To determine KD of GLPG38, a competitive binding assay was performed using a membrane preparation from cells expressing GPR84-Gi in addition to [^3H]G9543, a known GPR84 antagonist. [^11C]GLPG38 was then radiosynthesized via [^11C]methylation of desmethyl precursor using [^11C]methyl iodide. Binding specificity of [^11C]GLPG38 was assessed using human GPR84-stably-expressing human embryonic kidney cells (HEK-293) versus control HEK-293 cells. For animal studies, sepsis was induced in female C57BL/6J mice via intraperitoneal injection of lipopolysaccharide (LPS, 10 mg/kg); vehicle-treated mice were injected with saline alone. Dynamic 60 min PET/CT imaging was performed 24 hr following LPS-administration using [^11C]GLPG38. Subsequently, mice were perfused with PBS to remove blood, and radioactive signal was assessed in CNS and peripheral tissues via gamma counting. Ex vivo autoradiography of sagittal mouse brain sections was conducted to obtain high resolution images of [^11C]GLPG38 binding. To investigate alterations in GPR84 mRNA expression, quantitative polymerase-chain reaction was performed using mouse brain tissue and human monocyte-derived macrophage cells stimulated with LPS 24 hr prior to RNA extraction.
Ex vivo Audoradiography Confirms ^11C-MGX-10S Specificity.

[2] = healthy rhesus macaque, n=1
Protocol: The animal was anesthetized in the home cage with Telazol and transported to the PET facility, where the subject was intubated for mechanical ventilation; anesthesia was continued with isoflurane and maintained throughout the duration of the PET scan. A venous catheter was inserted into one hind limb and the monkey was placed on the PET gantry with its head secured to prevent motion artifacts. […] Emission data were collected beginning with the injection and continued for 60 minutes. Vitals (HR, SPO2, EtCO2 and respiratory rate) were collected for the entire duration of the scan. Data were corrected for attenuation and scatter and reconstructed using the three-dimensional-maximum a priori method (3D MAP algorithm). A ROI was defined for the whole brain on multiple planes by using a summed image. The volumetric ROI was then applied to a full dynamic data set to generate a TAC.

GPR84 [3] = molecular target: T1, GPR84; assay: Dynamic PET/CT in EAE vs naive mice, spinal cord time activity curves; type: in vivo
Protocol: 10-week old female C57BL/6 mice were induced with EAE using kits from Hooke Laboratories Inc. (cat #EK2110; Lawrence, MA). After anesthetizing mice with isoflurane gas (2.0-3.0% for induction and 1.5-2.5% for maintenance), they were inoculated with myelin oligodendrocyte glycoprotein (MOG35-55) in complete Freund's adjuvant (CFA) (0.2 mL per mouse, S.C.), followed by two pertussis toxin (PTX) injections (110 ng per injection, I.P., 1 and 24 h post-MOG injection). All mice were weighed and scored daily in the morning from day 8 onwards according to standard EAE scoring systems: 0, no paralysis; 1, loss of tail tone; 2, hind limb weakness or paresis; 3, hind limb paralysis; 4, complete hind leg and partial front leg paralysis. EAE mice were given supplemental food and fluids as necessary.
On days 15-16 after EAE induction, mice were catheterized and placed on the 4-mouse scanning bed of the Sofie GNEXT PET/CT scanner. Mice were injected with a radiotracer bolus of 130-170 μCi of ^18F-MGX-110S for a 60-min dynamic PET scan followed by CT. Scans were reconstructed from list mode into 19 frames (4×15 s, 4×60 s, 11×300 s) using OSEM3D reconstruction with 3 iterations and 24 subsets. Brain analysis was performed using a semi-automated brain atlas on VivoQuant software (2020 version) and spinal cords were manually drawn as previously described (JoVE).
(§1) Radiosynthesis of ^18F-MGX-110S was achieved by copper-mediated fluorination of a Bpin precursor in a mixture of dimethylacetamide at 130° C. for 20 min. C57BL/6 mice were induced with EAE using myelin oligodendrite glycoprotein (MOG35-55) emulsified in complete Freund's adjuvant and weighed/scored daily for disease severity. Expression of Gpr84 and Tspo was assessed in EAE (n=10-16 mice of low and high disease severities) versus naïve mice (n=5) using quantitative polymerase chain reaction (qPCR) of CNS tissues. In vivo kinetics, spatial distribution, and BBB permeability of ^18F-MGX-110S was assessed via 60-min dynamic PET/CT imaging of naïve C57BL/6 (n=3) and high scoring EAE mice (n=3). Ex vivo gamma counting of tissues of interest was conducted using naïve (n=8) and EAE (n=8) mice 60-min post-tracer injection. Lastly, EAE (n=3) and naïve (n=4) mice were injected with ^18F-GE180 and dissected 60 min later for gamma counting as a comparison.

GPR84 [4] = molecular target: T1, GPR84; assay: Ex vivo gamma counting of CNS tissues in EAE vs naive mice
Protocol: After the PET/CT scan the mice were perfused under 3% isoflurane and organs of interest were dissected out, weighed, and placed on a Hidex gamma counter to quantify the percent of injected dose per gram of tissue. After gamma counting, CNS tissues were frozen and sectioned on a cryotome at 40 μm and placed on a phosphor storage screen overnight. The images were read using a Typhoon imager 18 h after the screen was exposed to the tissues. Additional mice were also injected off of the PET/CT scanner and perfused at 60-min post-injection to increase the N for the ex vivo gamma counting and autoradiography data.
as §1, with “Ex vivo gamma counting of tissues of interest was conducted using naïve (n=8) and EAE (n=8) mice 60-min post-tracer injection. Lastly, EAE (n=3) and naïve (n=4) mice were injected with ^18F-GE180 and dissected 60 min later for gamma counting as a comparison.” left out

T1 sequence (Q8CIM5 whole entry): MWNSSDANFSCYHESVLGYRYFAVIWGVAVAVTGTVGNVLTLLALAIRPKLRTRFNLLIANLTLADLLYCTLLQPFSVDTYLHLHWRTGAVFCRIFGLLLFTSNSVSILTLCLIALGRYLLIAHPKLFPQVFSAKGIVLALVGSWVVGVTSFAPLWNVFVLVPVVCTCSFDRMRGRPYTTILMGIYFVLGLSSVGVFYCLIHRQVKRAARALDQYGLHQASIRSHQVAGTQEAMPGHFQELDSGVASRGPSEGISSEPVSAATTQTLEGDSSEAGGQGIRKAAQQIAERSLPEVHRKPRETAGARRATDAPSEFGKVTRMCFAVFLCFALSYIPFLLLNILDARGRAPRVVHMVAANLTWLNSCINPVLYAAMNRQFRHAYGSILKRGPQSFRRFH

Cc1cc2c(cc1O[11CH3])CCn1c-2c(C)c(OC[C@@H]2COCCO2)cc1=O [[^11C]GLPG38]
tracer binding in LPS brain sections after pre-blocking with GLPG1205 (GPR84 [1]; GLPG1205 5 mg/kg ([11C]GLPG38) or 1 mg/kg (11C-MGX-10S)): substantial reduction | tracer binding in brain sections, LPS-treated vs vehicle mice (GPR84 [1]; mouse, in vivo): marked increase | peak whole-brain uptake at 4 minutes post injection [2]: 3.3 SUV | whole-brain level after washout over 60 min [2]: 1.47 SUV

O=c1nc(OC[C@@H]2COCCO2)cc2n1CCc1cc([18F])ccc1-2 [^18F-MGX-110S]
cervical/thoracic spinal cord signal at 60 min, EAE mice (GPR84 [3]; high scoring EAE, n=3): 4.54±1.16 % ID/g | lumbar spinal cord signal at 60 min, EAE mice (GPR84 [3]; high scoring EAE, n=3, p=0.0206): 7.08±1.05 % ID/g | cervical/thoracic spinal cord signal at 60 min, naive mice (GPR84 [3]; n=3): 3.21±0.42 % ID/g | lumbar spinal cord signal at 60 min, naive mice (GPR84 [3]; n=3): 4.13±0.79 % ID/g | signal-to-background ratio (EAE-to-naive) in lumbar spinal cord relative to 18F-GE180 (GPR84 [4]; 60 min post injection): 2.5 fold | tracer binding in cervical/thoracic and lumbar spinal cord, EAE vs naive (GPR84 [4]; both p<0.01): significantly elevated tracer binding
